Reference: ChEMBL document CHEMBL1629541, “Synthesis and structure-activity relationships of aza- and diazabiphenyl analogues of the antitubercular drug (6S)-2-nitro-6-{[4-(trifluoromethoxy)benzyl]oxy}-6,7-dihydro-5H-imidazo[2,1-b][1,3]oxazine (PA-824)” (J Med Chem, 2010)
In brackets after ≈: the same amount, converted by molar mass.

Assays:
[1] = physchem; conditions: water, pH 7
Description: Solubility of the compound in water at pH 7.0 by HPLC

[2] = system: Mycobacterium tuberculosis; experiment: microbe, parasite or virus in culture; conditions: H37Rv
[3] = system: Mycobacterium tuberculosis; experiment: microbe, parasite or virus in culture; conditions: H37Rv; remark: listed apart in the source
Description: Antitubercular activity against Mycobacterium tuberculosis H37Rv by LORA method

Structure (SMILES) | solubility [1] | MIC [2] | MIC [3]
N#Cc1ccc(-c2cc(CO[C@@H]3COc4nc([N+](=O)[O-])cn4C3)ccn2)cc1 | 8 µg/mL (≈ 21.2 µM) | 0.38 µM (≈ 0.143 µg/mL) | 13 µM (≈ 4.91 µg/mL)
O=[N+]([O-])c1cn2c(n1)OC[C@@H](OCc1ccnc(-c3ccc(F)cc3)c1)C2 | 31 µg/mL (≈ 83.7 µM) | 0.17 µM (≈ 0.063 µg/mL) | 1.2 µM (≈ 0.444 µg/mL)
O=[N+]([O-])c1cn2c(n1)OC[C@@H](OCc1ccnc(-c3ccc(OC(F)F)cc3)c1)C2 | 16 µg/mL (≈ 38.2 µM) | 0.055 µM (≈ 0.023 µg/mL) | 2.7 µM (≈ 1.13 µg/mL)
COc1ccc(-c2cc(CO[C@@H]3COc4nc([N+](=O)[O-])cn4C3)ccn2)cc1F | 7.2 µg/mL (≈ 18 µM) | 0.34 µM (≈ 0.136 µg/mL) | 6.2 µM (≈ 2.48 µg/mL)
COc1ccc(-c2cc(CO[C@@H]3COc4nc([N+](=O)[O-])cn4C3)ccn2)cn1 | 93 µg/mL (≈ 243 µM) | 1.3 µM (≈ 0.498 µg/mL) | 12 µM (≈ 4.6 µg/mL)
O=[N+]([O-])c1cn2c(n1)OC[C@@H](OCc1cncc(-c3ccc(C(F)(F)F)cc3)c1)C2 | 2.8 µg/mL (≈ 6.66 µM) | 0.15 µM (≈ 0.0631 µg/mL) | 3.5 µM (≈ 1.47 µg/mL)
N#Cc1ccc(-c2cncc(CO[C@@H]3COc4nc([N+](=O)[O-])cn4C3)c2)cc1 | 29 µg/mL (≈ 76.8 µM) | 0.69 µM (≈ 0.26 µg/mL) | 18 µM (≈ 6.79 µg/mL)
O=[N+]([O-])c1cn2c(n1)OC[C@@H](OCc1cncc(-c3ccc(OC(F)(F)F)cc3)c1)C2 | 9.5 µg/mL (≈ 21.8 µM) | 0.17 µM (≈ 0.0742 µg/mL) | 2.4 µM (≈ 1.05 µg/mL)
O=[N+]([O-])c1cn2c(n1)OC[C@@H](OCc1cncc(-c3ccc(OC(F)F)cc3)c1)C2 | 9.2 µg/mL (≈ 22 µM) | 0.53 µM (≈ 0.222 µg/mL) | 5.9 µM (≈ 2.47 µg/mL)
COc1ccc(-c2cncc(CO[C@@H]3COc4nc([N+](=O)[O-])cn4C3)c2)cc1F | 24 µg/mL (≈ 59.9 µM) | 0.91 µM (≈ 0.364 µg/mL) | 9 µM (≈ 3.6 µg/mL)
COc1ccc(-c2cncc(CO[C@@H]3COc4nc([N+](=O)[O-])cn4C3)c2)cn1 | 31 µg/mL (≈ 80.9 µM) | 2.8 µM (≈ 1.07 µg/mL) | 22 µM (≈ 8.43 µg/mL)
O=[N+]([O-])c1cn2c(n1)OC[C@@H](OCc1cc(-c3ccc(C(F)(F)F)cc3)ccn1)C2 | 43 µg/mL (≈ 102 µM) | 0.88 µM (≈ 0.37 µg/mL) | 24 µM (≈ 10.1 µg/mL)
N#Cc1ccc(-c2ccnc(CO[C@@H]3COc4nc([N+](=O)[O-])cn4C3)c2)cc1 | 19 µg/mL (≈ 50.3 µM) | 2.1 µM (≈ 0.792 µg/mL) | > 32 µM
O=[N+]([O-])c1cn2c(n1)OC[C@@H](OCc1cc(-c3ccc(F)cc3)ccn1)C2 | 16 µg/mL (≈ 43.2 µM) | 0.46 µM (≈ 0.17 µg/mL) | 28 µM (≈ 10.4 µg/mL)
O=[N+]([O-])c1cn2c(n1)OC[C@@H](OCc1cc(-c3ccc(OC(F)F)cc3)ccn1)C2 | 86 µg/mL (≈ 206 µM) | 0.67 µM (≈ 0.28 µg/mL) | 26 µM (≈ 10.9 µg/mL)
COc1ccc(-c2ccnc(CO[C@@H]3COc4nc([N+](=O)[O-])cn4C3)c2)cc1F | 25 µg/mL (≈ 62.4 µM) | 2.3 µM (≈ 0.921 µg/mL) | 16 µM (≈ 6.41 µg/mL)
COc1ccc(-c2ccnc(CO[C@@H]3COc4nc([N+](=O)[O-])cn4C3)c2)cn1 | 96 µg/mL (≈ 250 µM) | 3.8 µM (≈ 1.46 µg/mL) | 31 µM (≈ 11.9 µg/mL)
O=[N+]([O-])c1cn2c(n1)OC[C@@H](OCc1ccc(-c3ccc(C(F)(F)F)cc3)cn1)C2 | 2.3 µg/mL (≈ 5.47 µM) | 0.04 µM (≈ 0.0168 µg/mL) | 3.4 µM (≈ 1.43 µg/mL)
N#Cc1ccc(-c2ccc(CO[C@@H]3COc4nc([N+](=O)[O-])cn4C3)nc2)cc1 | 45 µg/mL (≈ 119 µM) | 0.18 µM (≈ 0.0679 µg/mL) | 7.5 µM (≈ 2.83 µg/mL)
COc1ccc(-c2ccc(CO[C@@H]3COc4nc([N+](=O)[O-])cn4C3)nc2)cc1F | 10 µg/mL (≈ 25 µM) | 0.17 µM (≈ 0.0681 µg/mL) | 3.4 µM (≈ 1.36 µg/mL)
O=[N+]([O-])c1cn2c(n1)OC[C@@H](OCc1ccc(-c3ccc(OC(F)(F)F)c(Cl)c3)cn1)C2 | 0.85 µg/mL (≈ 1.81 µM) | 0.04 µM (≈ 0.0188 µg/mL) | 2.4 µM (≈ 1.13 µg/mL)
O=[N+]([O-])c1cn2c(n1)OC[C@@H](OCc1ccc(-c3ccc(Cl)c(OC(F)(F)F)c3)cn1)C2 | 0.8 µg/mL (≈ 1.7 µM) | 0.06 µM (≈ 0.0282 µg/mL) | 2.3 µM (≈ 1.08 µg/mL)
O=[N+]([O-])c1cn2c(n1)OC[C@@H](OCc1ccc(-c3cccc(F)n3)cn1)C2 | 41 µg/mL (≈ 110 µM) | 1.4 µM (≈ 0.52 µg/mL) | 20 µM (≈ 7.43 µg/mL)
O=[N+]([O-])c1cn2c(n1)OC[C@@H](OCc1ccc(-c3ccc(C(F)(F)F)nc3)cn1)C2 | 12 µg/mL (≈ 28.5 µM) | 0.24 µM (≈ 0.101 µg/mL) | 16 µM (≈ 6.74 µg/mL)
O=[N+]([O-])c1cn2c(n1)OC[C@@H](OCc1ccc(-c3ccc(F)nc3)cn1)C2 | 43 µg/mL (≈ 116 µM) | 0.49 µM (≈ 0.182 µg/mL) | 19 µM (≈ 7.06 µg/mL)

Structure (SMILES) | solubility [1] | MIC [2] | MIC [3]
O=[N+]([O-])c1cn2c(n1)OC[C@@H](OCc1ccc(-c3cncc(F)c3)cn1)C2 | 130 µg/mL (≈ 350 µM) | 2.6 µM (≈ 0.965 µg/mL) | 21 µM (≈ 7.8 µg/mL)
COc1ccc(-c2ccc(CO[C@@H]3COc4nc([N+](=O)[O-])cn4C3)nc2)cn1 | 24 µg/mL (≈ 62.6 µM) | 0.36 µM (≈ 0.138 µg/mL) | 9.6 µM (≈ 3.68 µg/mL)
O=[N+]([O-])c1cn2c(n1)OC[C@@H](OCc1ccc(-c3ccncc3F)cn1)C2 | 700 µg/mL (≈ 1890 µM) | 3.2 µM (≈ 1.19 µg/mL) | 20 µM (≈ 7.43 µg/mL)
O=[N+]([O-])c1cn2c(n1)OC[C@@H](OCc1cccc(-c3ccc(C(F)(F)F)nc3)c1)C2 | 1.1 µg/mL (≈ 2.62 µM) | 0.47 µM (≈ 0.198 µg/mL) | 8.4 µM (≈ 3.53 µg/mL)
O=[N+]([O-])c1cn2c(n1)OC[C@@H](OCc1cccc(-c3ccc(F)nc3)c1)C2 | 26 µg/mL (≈ 70.2 µM) | 0.37 µM (≈ 0.137 µg/mL) | 5.1 µM (≈ 1.89 µg/mL)
COc1ccc(-c2cccc(CO[C@@H]3COc4nc([N+](=O)[O-])cn4C3)c2)cn1 | 18 µg/mL (≈ 47.1 µM) | 0.4 µM (≈ 0.153 µg/mL) | 1.7 µM (≈ 0.65 µg/mL)
O=[N+]([O-])c1cn2c(n1)OC[C@@H](OCc1cccc(-c3ccc(OCc4ccccc4)nc3)c1)C2 | 0.15 µg/mL (≈ 0.327 µM) | 0.07 µM (≈ 0.0321 µg/mL) | 3 µM (≈ 1.38 µg/mL)
O=[N+]([O-])c1cn2c(n1)OC[C@@H](OCc1ccc(-c3ccccn3)cc1)C2 | 7.3 µg/mL (≈ 20.7 µM) | 0.21 µM (≈ 0.074 µg/mL) | 1.7 µM (≈ 0.599 µg/mL)
O=[N+]([O-])c1cn2c(n1)OC[C@@H](OCc1ccc(-c3cccnc3)cc1)C2 | 29 µg/mL (≈ 82.3 µM) | 0.51 µM (≈ 0.18 µg/mL) | 5.7 µM (≈ 2.01 µg/mL)
N#Cc1ccc(-c2ccc(CO[C@@H]3COc4nc([N+](=O)[O-])cn4C3)cc2)nc1 | 1.7 µg/mL (≈ 4.5 µM) | 0.08 µM (≈ 0.0302 µg/mL) | 2.5 µM (≈ 0.943 µg/mL)
O=[N+]([O-])c1cn2c(n1)OC[C@@H](OCc1ccc(-c3cccc(F)n3)cc1)C2 | 4.3 µg/mL (≈ 11.6 µM) | 0.14 µM (≈ 0.0518 µg/mL) | 1.1 µM (≈ 0.407 µg/mL)
COc1ccc(-c2ccc(CO[C@@H]3COc4nc([N+](=O)[O-])cn4C3)cc2)nc1 | 2.5 µg/mL (≈ 6.54 µM) | 0.13 µM (≈ 0.0497 µg/mL) | 1.2 µM (≈ 0.459 µg/mL)
N#Cc1ccc(-c2ccc(CO[C@@H]3COc4nc([N+](=O)[O-])cn4C3)cc2)cn1 | 3 µg/mL (≈ 7.95 µM) | 0.2 µM (≈ 0.0755 µg/mL) | 2.4 µM (≈ 0.906 µg/mL)
O=[N+]([O-])c1cn2c(n1)OC[C@@H](OCc1ccc(-c3cncc(F)c3)cc1)C2 | 55 µg/mL (≈ 149 µM) | 0.55 µM (≈ 0.204 µg/mL) | 2.8 µM (≈ 1.04 µg/mL)
Nc1ccc(-c2ccc(CO[C@@H]3COc4nc([N+](=O)[O-])cn4C3)cc2)cn1 | 13 µg/mL (≈ 35.4 µM) | 2.6 µM (≈ 0.955 µg/mL) | 19 µM (≈ 6.98 µg/mL)
O=[N+]([O-])c1cn2c(n1)OC[C@@H](OCc1ccc(-c3ccc(OCc4ccccc4)nc3)cc1)C2 | 0.03 µg/mL (≈ 0.0654 µM) | 0.04 µM (≈ 0.0183 µg/mL) | > 32 µM
O=[N+]([O-])c1cn2c(n1)OC[C@@H](OCc1ccc(-c3ccncc3)cc1)C2 | 22 µg/mL (≈ 62.4 µM) | 0.5 µM (≈ 0.176 µg/mL) | 9.2 µM (≈ 3.24 µg/mL)
O=[N+]([O-])c1cn2c(n1)OC[C@@H](OCc1ccc(-c3ccncc3F)cc1)C2 | 16 µg/mL (≈ 43.2 µM) | 0.56 µM (≈ 0.207 µg/mL) | 3.9 µM (≈ 1.44 µg/mL)
O=[N+]([O-])c1cn2c(n1)OC[C@@H](OCc1cccc(-c3ccc(C(F)(F)F)cc3)n1)C2 | 5 µg/mL (≈ 11.9 µM) | 0.29 µM (≈ 0.122 µg/mL) | 2.9 µM (≈ 1.22 µg/mL)
N#Cc1ccc(-c2cccc(CO[C@@H]3COc4nc([N+](=O)[O-])cn4C3)n2)cc1 | 24 µg/mL (≈ 63.6 µM) | 0.48 µM (≈ 0.181 µg/mL) | 10 µM (≈ 3.77 µg/mL)
O=[N+]([O-])c1cn2c(n1)OC[C@@H](OCc1cccc(-c3ccc(OC(F)F)cc3)n1)C2 | 9.6 µg/mL (≈ 22.9 µM) | 0.17 µM (≈ 0.0711 µg/mL) | 2.7 µM (≈ 1.13 µg/mL)
COc1ccc(-c2cccc(CO[C@@H]3COc4nc([N+](=O)[O-])cn4C3)n2)cc1F | 10 µg/mL (≈ 25 µM) | 0.3 µM (≈ 0.12 µg/mL) | 4.3 µM (≈ 1.72 µg/mL)
COc1ccc(-c2cccc(CO[C@@H]3COc4nc([N+](=O)[O-])cn4C3)n2)cn1 | 14 µg/mL (≈ 36.5 µM) | 0.71 µM (≈ 0.272 µg/mL) | 5.2 µM (≈ 1.99 µg/mL)
O=[N+]([O-])c1cn2c(n1)OC[C@@H](OCc1ccnc(-c3ccc(C(F)(F)F)cc3)c1)C2 | 2.8 µg/mL (≈ 6.66 µM) | 0.075 µM (≈ 0.0315 µg/mL) | 4.4 µM (≈ 1.85 µg/mL)
